From patent publication US9518018B2, “3-alkoxy, thioalkyl and amino-4-amino-6-(substituted)picolinates and their use as herbicides” (Dow AgroSciences LLC, priority 2011, dated 2016)

Assays:
[1] = tested on: ABUTH: velvetleaf (Abutilon theophrasti); test: Post-Emergent Test I herbicidal activity; type: in vivo; details: Abutilon theophrasti, post-emergence, 336 h, read-out: Visual Growth Reduction (%)-14 Days after Application ABUTH; for pest or weed control at 70 g/ha: Table 3, 70 g ai/ha; for pest or weed control at 140 g/ha: Table 3, 140 g ai/ha
Method: (§1) Seeds or nutlets of the desired test plant species were planted in Sun Gro Metro-Mix® 360 planting mixture, which typically has a pH of 6.0 to 6.8 and an organic matter content of about 30 percent, in plastic pots with a surface area of 64 square centimeters. When required to ensure good germination and healthy plants, a fungicide treatment and/or other chemical or physical treatment was applied. The plants were grown for 7-21 d in a greenhouse with an approximate 15 h photoperiod which was maintained at about 23-29° C. during the day and 22-28° C. during the night. Nutrients and water were added on a regular basis and supplemental lighting was provided with overhead metal halide 1000-Watt lamps as necessary. The plants were employed for testing when they reached the first or second true leaf stage.
(§2) A weighed amount, determined by the highest rate to be tested, of each test compound was placed in a 25 mL glass vial and was dissolved in 4 mL of a 97:3 v/v mixture of acetone and DMSO to obtain concentrated stock solutions. […] The concentrated stock solutions obtained were diluted with 20 mL of an aqueous mixture containing acetone, water, isopropyl alcohol, DMSO, Atplus 411F crop oil concentrate, and Triton® X-155 surfactant in a 48.5:39:10:1.5:1.0:0.02 v/v ratio to obtain spray solutions containing the highest application rates. Additional application rates were obtained by serial dilution of 12 mL of the high rate solution into a solution containing 2 mL of 97:3 v/v mixture of acetone and DMSO and 10 mL of an aqueous mixture containing acetone, water, isopropyl alcohol, DMSO, Atplus 411F crop oil concentrate, and Triton X-155 surfactant in a 48.5:39:10:1.5:1.0:0.02 v/v ratio to obtain ½×, ¼×, ⅛× and 1/16× rates of the high rate. Compound requirements are based upon a 12 mL application volume at a rate of 187 liters per hectare (L/ha). Formulated compounds were applied to the plant material with an overhead Mandel track sprayer equipped with 8002E nozzles calibrated to deliver 187 L/ha over an application area of 0.503 square meters at a spray height of 18 inches (43 cm) above the average plant canopy height. Control plants were sprayed in the same manner with the solvent blank.
(§3) The treated plants and control plants were placed in a greenhouse as described above and watered by subirrigation to prevent wash-off of the test compounds. After 14 d, the condition of the test plants as compared with that of the untreated plants was determined visually and scored on a scale of 0 to 100 percent where 0 corresponds to no injury and 100 corresponds to complete kill.
(§4) By applying the well-accepted probit analysis as described by J. Berkson in Journal of the […], 48, 565 (1953) and by D. Finney in “Probit Analysis” Cambridge University Press (1952), the above data can be used to calculate GR20, GR50 and GR80 values, which are defined as growth reduction factors that correspond to the effective dose of herbicide required to kill or control 20 percent, 50 percent or 80 percent, respectively, of a target plant.

[2] = tested on: CHEAL: lambsquarters (Chenopodium album); test: Post-Emergent Test I herbicidal activity; type: in vivo; details: Chenopodium album, post-emergence, 336 h, read-out: Visual Growth Reduction (%)-14 Days after Application CHEAL; for pest or weed control at 70 g/ha: Table 3, 70 g ai/ha; for pest or weed control at 140 g/ha: Table 3, 140 g ai/ha
Method: as §1, §2, §3, §4

[3] = tested on: CYPES: yellow nutsedge (Cyperus esculentus); test: Post-Emergent Test I herbicidal activity; type: in vivo; details: post-emergence, 336 h, read-out: Visual Growth Reduction (%)-14 Days after Application CYPES; for pest or weed control at 70 g/ha: Table 3, 70 g ai/ha; for pest or weed control at 140 g/ha: Table 3, 140 g ai/ha
Method: as §1, §2, §3, §4

[4] = tested on: ECHCG: barnyardgrass (Echinochloa crus-galli); test: Post-Emergent Test I herbicidal activity; type: in vivo; details: post-emergence, 336 h, read-out: Visual Growth Reduction (%)-14 Days after Application ECHCG; for pest or weed control at 70 g/ha: Table 3, 70 g ai/ha; for pest or weed control at 140 g/ha: Table 3, 140 g ai/ha
Method: as §1, §2, §3, §4

[5] = tested on: EPHHL: wild poinsettia (Euphorbia heterophylla); test: Post-Emergent Test I herbicidal activity; type: in vivo; details: post-emergence, 336 h, read-out: Visual Growth Reduction (%)-14 Days after Application EPHHL; for pest or weed control at 70 g/ha: Table 3, 70 g ai/ha; for pest or weed control at 140 g/ha: Table 3, 140 g ai/ha
Method: as §1, §2, §3, §4

[6] = tested on: ORYSA: rice (Oryza sativa); test: Post-Emergent Test I herbicidal activity; type: in vivo; details: post-emergence, 336 h, read-out: Visual Growth Reduction (%)-14 Days after Application ORYSA; for pest or weed control at 70 g/ha: Table 3, 70 g ai/ha; for pest or weed control at 140 g/ha: Table 3, 140 g ai/ha
Method: as §1, §2, §3, §4

ZEAMX: corn (Zea mays) = test: Post-Emergent Test I herbicidal activity; type: in vivo; details: Zea mays, post-emergence, 336 h, read-out: Visual Growth Reduction (%)-14 Days after Application ZEAMX; for pest or weed control at 70 g/ha: Table 3, 70 g ai/ha; for pest or weed control at 140 g/ha: Table 3, 140 g ai/ha
Method: as §1, §2, §3, §4

SMILES	melting point [°C]	pest or weed control at 70 g/ha [1] [%]	pest or weed control at 70 g/ha [2] [%]	pest or weed control at 70 g/ha [3] [%]	pest or weed control at 70 g/ha [4] [%]	pest or weed control at 70 g/ha [5] [%]	pest or weed control at 70 g/ha [6] [%]	pest or weed control at 70 g/ha (ZEAMX: corn (Zea mays)) [%]	pest or weed control at 140 g/ha [1] [%]	pest or weed control at 140 g/ha [2] [%]	pest or weed control at 140 g/ha [3] [%]	pest or weed control at 140 g/ha [4] [%]	pest or weed control at 140 g/ha [5] [%]	pest or weed control at 140 g/ha [6] [%]	pest or weed control at 140 g/ha (ZEAMX: corn (Zea mays)) [%]
COC(=O)c1nc(-c2ccc([Si](C)(C)C)c(F)c2F)c(F)c(N)c1OC	123 to 125	–	–	–	–	–	–	–	–	–	–	–	–	–	–
COC(=O)c1nc(-c2cc(F)c([Si](C)(C)C)cc2F)c(F)c(N)c1OC	137 to 139	–	–	–	–	–	–	–	–	–	–	–	–	–	–
COC(=O)c1nc(-c2ccc([Si](C)(C)C)cc2F)c(F)c(N)c1OC	127 to 129	–	–	–	–	–	–	–	–	–	–	–	–	–	–
COC(=O)c1nc(-c2ccc(Cl)c(OC)c2F)cc(N)c1OC(F)F [Compound 9]	162 to 164	–	–	–	–	–	–	–	–	–	–	–	–	–	–
COc1c(C(=O)O)nc(-c2ccc(Cl)cc2F)c(F)c1N [Compound 71]	–	80	90	100	85	100	0	70	–	–	–	–	–	–	–
COC(=O)c1nc(-c2ccc(OC)nc2)c(F)c(N)c1OC [Compound 75, methyl 4-amino-3-fluoro-5,6′-dimethoxy-[2,3′-bipyridine]-6-carboxylate]	–	–	–	–	–	–	–	–	90	85	95	0	85	0	85
COC(=O)c1nc(-c2ccc(C3CC3)nc2)c(F)c(N)c1OC [Compound 76, methyl 4-amino-6′-cyclopropyl-3-fluoro-5-methoxy-[2,3′-bipyridine]-6-carboxylate]	–	–	–	–	–	–	–	–	85	80	95	0	97	0	50
COc1c(C(=O)O)nc(-c2ccc(C3CC3)nc2)c(F)c1N [Compound 77, 4-amino-6′-cyclopropyl-3-fluoro-5-methoxy-[2,3′-bipyridine]-6-carboxylic acid]	–	–	–	–	–	–	–	–	80	75	90	85	95	65	95
COc1ccc(-c2nc(C(=O)O)c(OC)c(N)c2F)cn1 [Compound 78, 4-amino-3-fluoro-5,6′-dimethoxy-[2,3′-bipyridine]-6-carboxylic acid]	–	80	97	80	85	80	50	80	–	–	–	–	–	–	–
COc1c(C(=O)O)nc(-c2ccc(Cl)c(Cl)c2)c(F)c1N [Compound 79]	–	80	100	90	70	95	15	80	–	–	–	–	–	–	–
COC(=O)c1nc(C(C)(F)F)cc(N)c1OC [Compound 81, methyl 4-amino-6-(1,1-difluoroethyl)-3-methoxypicolinate]	–	–	–	–	–	–	–	–	10	80	0	0	60	0	0
COc1c(N)cc(C(C)(F)F)nc1C(=O)O [Compound 82, 4-amino-6-(1,1-difluoroethyl)-3-methoxypicolinic acid]	–	–	–	–	–	–	–	–	20	85	0	0	80	0	0
COC(=O)c1nc(C(C)F)cc(N)c1OC (centres unmarked) [Compound 83, methyl 4-amino-6-(1-fluoroethyl)-3-methoxypicolinate]	–	–	–	–	–	–	–	–	0	0	0	0	0	0	0
COc1c(N)cc(C(C)F)nc1C(=O)O (centres unmarked) [Compound 84, 4-amino-6-(1-fluoroethyl)-3-methoxypicolinic acid]	–	–	–	–	–	–	–	–	10	30	0	0	0	0	0
CCOC(=O)c1nc(-c2ccc(Cl)cc2F)cc(N)c1SCC(F)(F)F [Compound 89, Ethyl 4-amino-6-(4-chloro-2-fluorophenyl)-3-((2,2,2-trifluoroethyl)thio)picolinate]	–	–	–	–	–	–	–	–	30	70	0	0	90	0	0
COC(=O)c1nc(C(F)F)cc(N)c1OC [Compound 92]	–	–	–	–	–	–	–	–	40	95	0	0	70	0	0
C=Cc1nc(C(=O)O)c(OC)c(N)c1F [Compound 95, 4-amino-5-fluoro-3-methoxy-6-vinylpicolinic acid]	–	–	–	–	–	–	–	–	0	60	0	0	30	0	0
